Measured values published in patent US20190218188A1, “NOVEL 5-SUBSTITUTED IMIDAZOLE DERIVATIVES” (Bayer CropScience Aktiengesellschaft, priority 2016, published 2019).

Experiment: Log P by HPLC on reversed phase columns (EEC directive 79/831 Annex V.A8)
Type: physicochemical
Settings: reversed phase HPLC column; method [a]: LC-UV, acidic range, 0.1% formic acid in water and acetonitrile as eluent (linear gradient 10% to 95% acetonitrile)
Method: Measurement of Log P values was performed according to EEC directive 79/831 Annex V.A8 by HPLC (High Performance Liquid Chromatography) on reversed phase columns with the following methods: • ^[a] Log P value is determined by measurement of LC-UV, in an acidic range, with 0.1% formic acid in water and acetonitrile as eluent (linear gradient from 10% acetonitrile to 95% acetonitrile). • ^[b] Log P value is determined by measurement of LC-UV, in a neutral range, with 0.001 molar ammonium acetate solution in water and acetonitrile as eluent (linear gradient from 10% acetonitrile to 95% acetonitrile). • ^[c] Log P value is determined by measurement of LC-UV, in an acidic range, with 0.1% phosphoric acid and acetonitrile as eluent (linear gradient from 10% acetonitrile to 95% acetonitrile). If more than one Log P value is available within the same method, all the values are given and separated by “+”. Calibration was done with straight-chain alkan2-ones (with 3 to 16 carbon atoms) with known Log P values (measurement of Log P values using retention times with linear interpolation between successive alkanones).

| chromatographic logP | Structure (SMILES) |
| --- | --- |
| 2.98 | N#Cc1cncn1CC(F)(Cc1cccc(F)c1F)C1(Cl)CC1 (centres unmarked) [Example I-01, 1-[2-(1-chlorocyclopropyl)-3-(2,3-difluorophenyl)-2-fluorpropyl]-1H-imidazole-5-carbonitrile] |
| 3.25 | N#Cc1cncn1CC(Cl)(Cc1cccc(F)c1F)C1(Cl)CC1 (centres unmarked) [Example I-02, 1-[2-chloro-2-(1-chlorocyclopropyl)-3-(2,3-difluorophenyl)propyl]-1H-imidazole-5-carbonitrile] |
